Source: ChEMBL document CHEMBL1201862, “PubChem BioAssay data set” (2004)
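Where inhibition never reached the appropriate level, the endpoint shown equals the highest concentration tested. Otherwise, values were interpolated linearly from a five-concentration, 48-hour dose response in 96-well plates. At the GI50, growth is halved.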 Calls of active or inactive are those of the source. Cut-off read from the data, not from the text of the source: active = GI50 up to about 1.1 µM and inactive = higher.

Experiments:
Test in all cases: growth of human tumour cells (NCI), 48 h
DMS-273 = test system: DMS-273
HOP-18 = test system: HOP-18
M19-MEL = test system: M19-MEL
RXF 631 = test system: RXF 631
XF498 = test system: XF498
LXFL 529 = test system: LXFL 529

Measured: GI50

O=C(Nc1ccc(C(F)(F)F)cc1[N+](=O)[O-])C(=O)Nn1c(S)nc2ccccc2c1=O
inactive: DMS-273 > 100 µM | HOP-18 > 100 µM | M19-MEL > 100 µM | RXF 631 > 100 µM | XF498 > 100 µM

CCC/C(=N\NC(=O)c1cc2ccccc2cc1O)C(CC)C(=O)CCC(=O)N(Cc1ccccc1)Cc1ccccc1 (stereo unspecified)
inactive: DMS-273 18.2 µM | HOP-18 11 µM | LXFL 529 29.6 µM | M19-MEL 18.7 µM | RXF 631 38.1 µM

O=C(CC(=O)c1ccc([N+](=O)[O-])cc1)C(=O)Nc1nccs1
inactive: DMS-273 > 100 µM | HOP-18 > 100 µM | LXFL 529 > 100 µM | RXF 631 > 100 µM | XF498 > 100 µM

Cc1nc(-c2cccnc2)sc1C(=O)/C=C/c1cccc([N+](=O)[O-])c1
inactive: DMS-273 > 100 µM | HOP-18 > 100 µM | M19-MEL > 100 µM | RXF 631 > 100 µM

CC(=O)NC1=C(NC(C)(C)C)C(=O)c2ccccc2C1=O
inactive: DMS-273 26.1 µM | HOP-18 14.8 µM | LXFL 529 15.2 µM | M19-MEL 15.4 µM | XF498 11.1 µM

CCO/N=[N+](\[O-])N(CC)CC
inactive: DMS-273 > 100 µM | LXFL 529 > 100 µM | M19-MEL > 100 µM | RXF 631 > 100 µM | XF498 > 100 µM

Cc1cccc(-n2c(=S)[nH]c3c(sc(=O)n3-c3ccccc3C)c2=O)c1
inactive: DMS-273 > 100 µM | HOP-18 > 100 µM | LXFL 529 > 100 µM | M19-MEL > 100 µM | RXF 631 > 100 µM

O=C(Nc1ccc(Cl)cc1Cl)c1c/c(=N\O)c2ccc(O)cc2o1
inactive: HOP-18 > 100 µM | LXFL 529 > 100 µM | M19-MEL > 100 µM | RXF 631 > 100 µM

COc1ccc(/C(Cl)=C(\C=O)c2ccc(Cl)cc2)cc1OC
inactive: DMS-273 3.72 µM | HOP-18 19.1 µM | LXFL 529 7.28 µM | M19-MEL 9.12 µM | RXF 631 3.69 µM

C=CCCC(OCOCCOC)c1cc(C)c(O[Si](C)(C)C(C)(C)C)c(C)c1 (stereo unspecified)
inactive: HOP-18 28.6 µM | LXFL 529 22.8 µM | M19-MEL 17.9 µM | RXF 631 15.4 µM

O=C(N/N=C(\c1nc2ccc(Cl)cc2nc1O)C(O)c1ccccc1Cl)c1ccncc1 (stereo unspecified)
inactive: DMS-273 > 100 µM | HOP-18 > 100 µM | LXFL 529 > 100 µM | M19-MEL > 100 µM | RXF 631 > 100 µM

CN(C)CC1(C)CC/C(=C\c2ccc(Cl)cc2)C1=O (stereo unspecified)
inactive: DMS-273 20.7 µM | HOP-18 46 µM | LXFL 529 21.1 µM | M19-MEL 50.8 µM | XF498 78.9 µM

COC(=O)C(C#N)C1NC(=O)c2ccccc21 (stereo unspecified)
inactive: DMS-273 > 100 µM | HOP-18 > 100 µM | M19-MEL > 100 µM | RXF 631 > 100 µM

CCCN(CCCCC(NC(C)=O)C(=O)NCc1ccccc1)C(=O)NC (stereo unspecified)
inactive: DMS-273 > 100 µM | LXFL 529 > 100 µM | M19-MEL > 100 µM | RXF 631 > 100 µM | XF498 > 100 µM

O=c1[nH]cnc2[nH]nnc12
inactive: DMS-273 6 µM | HOP-18 2.33 µM | LXFL 529 84.7 µM | M19-MEL 4.02 µM | XF498 7.5 µM

C=C1C(OC(C)=O)CC(OC(C)=O)C2(C)C(OC(C)=O)C(OC(C)=O)C3=C(C)C(OC(=O)/C=C/c4ccccc4)CC(C(OC(C)=O)C12)C3(C)C (stereo unspecified)
inactive: DMS-273 > 100 µM | HOP-18 51.1 µM | LXFL 529 51.9 µM | M19-MEL > 100 µM | RXF 631 51.2 µM

CN(C)Cc1cc(/C(=C(\C#N)c2ccccc2)c2ccc(O)cc2)ccc1O
inactive: DMS-273 17.4 µM | HOP-18 19.9 µM | LXFL 529 18.2 µM | M19-MEL 16.9 µM | RXF 631 17.8 µM
